Consider one compound from paper PMC3025057 (Experimental parasitology, 2010).

This experiment concerns the target Trypanosoma brucei hexokinase 1 (TbHK1) (Trypanosoma brucei, UniProt Q38C42). Kind of experiment: G6PDH-coupled hexokinase assay with recombinant enzyme. It is filed as biochemical.

Consider `O=c1c(O)c(-c2ccc(O)c(O)c2)oc2cc(O)cc(O)c12` [QCN, 3,3′,4′,5,7-pentahydroxyflavone], for which the Ki – broadly, the equilibrium dissociation constant of an inhibitor or competing ligand from its target – is 2900 ± 900 nM.
